PubChem BioAssay (NCI)
Values joined by “and” are separate entries in the source; they are usually repeats but may differ in a detail not shown here. Equal entries are not always repeated.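 The compound was tested at five concentrations on cells cultured in 96-well plates, with a 48-hour exposure period. The concentration for 50% growth inhibition is given as GI50. TGI: total growth inhibition.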

Columns and labels:
Test in all cases: NCI anticancer screen, dose series, 48 h
[1] = test system: SNB-19 CNS
[2] = test system: UACC-62 melanoma
[3] = test system: MALME-3M melanoma
[4] = test system: SF-539 CNS
[5] = test system: SN12C renal
[6] = test system: HL-60(TB) leukemia
[7] = test system: SF-295 CNS
[8] = test system: K-562 leukemia
[9] = test system: HOP-92 NSCLC
[10] = test system: T-47D breast

Row | SMILES | TGI [1] | TGI [2] [µM] | TGI [3] [µM] | TGI [4] [µM] | TGI [5] | TGI [6] | TGI [7] | TGI [8] [µM] | TGI [9] [µM] | GI50 [9] [µM] | GI50 [1] | GI50 [2] | GI50 [10] [µM] | TGI [10] [µM] | GI50 [3] | GI50 [5] | GI50 [6] | GI50 [7] | GI50 [8] | GI50 [4] [µM]
1 | Cc1cc(NS(=O)(=O)c2ccc(Nc3c4ccccc4nc4c(C(=O)Nc5ccc(S(=O)(=O)N=C(N)N)cc5)ccc(Cl)c34)cc2)no1 | > 100 µM | 73.5 | > 100 | 41.7 | > 100 µM | 68.8 µM | > 100 µM | > 100 |  |  |  |  |  |  |  |  |  |  |  | 
2 | Brc1ccc(C2SCc3nc4ccccc4n32)cc1 (stereo unspecified) | 9.02 µM | 21.1 | 30.2 | 34.3 | 27.7 µM | 12.4 µM | 24.8 µM | > 100 | 9.66 |  |  |  |  |  |  |  |  |  |  | 
3 | Clc1ccc(C2=NOC3C4CCC(C4)C23)cc1 (stereo unspecified) | > 100 µM | > 100 | > 100 | > 100 | > 100 µM | > 100 µM | > 100 µM | > 100 | > 100 |  |  |  |  |  |  |  |  |  |  | 
4 | COc1cc2ccc(CC(N)=O)cc2cc1OC | > 100 µM | > 100 | > 100 | > 100 | > 100 µM |  | > 100 µM | > 100 | > 100 |  |  |  |  |  |  |  |  |  |  | 
5 | CCCCCCCCCCCCCCNCC(OCC)OCC | 31.8 µM | 33 | 32 | 29.7 | 27.9 µM | 11.5 µM | 30.6 µM |  | 26.4 |  |  |  |  |  |  |  |  |  |  | 
6 | Clc1cccc2c1OCC1C(c3ccccc3)=NN(c3ccccc3)C21 (stereo unspecified) | > 100 µM |  | > 100 |  |  | > 100 µM | > 100 µM | > 100 | > 100 |  |  |  |  |  |  |  |  |  |  | 
7 | O=S(=O)(NCCO)c1cc[c]([Sb](=[O])([OH])[OH])cc1 | > 100 µM | > 100 | > 100 |  | > 100 µM | > 100 µM | > 100 µM | > 100 | > 100 | > 100 | > 100 µM | > 100 µM | > 100 | > 100 | > 100 µM | > 100 µM | > 100 µM | > 100 µM | > 100 µM | 
8 | Cc1ccc2c(CC(=O)O)cc(=O)oc2c1 | > 100 µM | > 100 | > 100 | > 100 | > 100 µM | > 100 µM | > 100 µM | > 100 | > 100 |  |  |  |  |  |  |  |  |  |  | 
9 | COc1ccc(C#CC2=C(c3cc(OC)c(OC)c(OC)c3)C(=O)OC2)cc1 | > 50 µM | 18.4 |  | 3.26 |  | > 50 µM | 43.5 µM | > 50 |  |  | 5.98 µM | 5.23 µM |  |  |  |  | 4.48 µM | 1.75 µM | 2.11 µM | 1.29
10 | Cc1cc2c(cc1C)[n+](Cc1ccc3ccccc3n1)cn2Cc1ccc2ccccc2n1 | 2.36 µM | 2.1 | 2.56 | 2.53 | 2.17 µM |  | 2.63 µM | 3 | 2 | 0.484 | 0.91 µM | 0.612 µM | 0.393 | 2.93 | 0.783 µM | 0.792 µM |  | 1.12 µM | 0.527 µM | 0.899
11 | O=C1N[C@H]2[C@H](O)[C@H](O)[C@@H](O)[C@H](O)[C@@H]2c2cc3c(c(O)c21)OCO3 | 0.939 µM and 0.197 µM |  |  |  | 2.11 µM and 0.28 µM | 0.331 µM and 0.0744 µM | 3.51 µM and 0.352 µM |  |  | 0.333 | 0.172 µM and 0.125 µM | 0.246 µM and 0.412 µM |  | 0.155 | 0.266 µM and 0.275 µM | 0.206 µM and 0.246 µM | 0.194 µM and 0.0783 µM | 0.346 µM and 0.495 µM | 0.216 µM and 0.214 µM | 
12 | C/C=C1\CCC2c3[nH]c4ccccc4c3CCN2C1 (stereo unspecified) | > 100 µM | > 100 | > 100 | > 100 | > 100 µM | > 100 µM | > 100 µM | > 100 | 99.7 |  |  |  |  |  |  |  |  |  |  | 
13 | Cc1ccc(C(=O)N=Nc2c(O)[nH]c3ccc(Cl)cc23)cc1 | > 50 µM | 23.1 |  | > 50 | 17.8 µM | > 50 µM | > 50 µM | > 50 |  |  | 45.6 µM | 9.3 µM |  |  |  | 8.7 µM | 38.7 µM | 44.5 µM | 16.2 µM | > 50
14 | COC[C@@H](N=CN1CCc2cc(OC)c(OC)cc2C1)C(C)(C)C | > 100 µM | > 100 | > 100 | > 100 | > 100 µM | > 100 µM | > 100 µM | > 100 | > 100 |  |  |  |  |  |  |  |  |  |  | 
15 | COc1ccc2c(c1)CCN1C3=C(CCC3)C(=O)C[C@@H]21 | > 100 µM | > 100 | > 100 | > 100 | > 100 µM | > 100 µM | > 100 µM | > 100 | > 100 |  |  |  |  |  |  |  |  |  |  | 
16 | COc1cc2c(cc1OC)[C@@H]([C@H](O)c1ccccc1)NCC2 | > 100 µM | > 100 | > 100 | > 100 | > 100 µM | > 100 µM | > 100 µM | > 100 | > 100 |  |  |  |  |  |  |  |  |  |  | 
17 | Cc1cn2c(/C=N/N=C(N)N)c(-c3ccsc3)nc2s1 | 23.7 µM | 23.4 |  |  | 10.9 µM |  | 22.9 µM | > 100 |  |  | 7.31 µM | 11.3 µM | 2.7 | 7.86 |  | 2.27 µM |  | 9.98 µM | 3.82 µM | 
18 | Cc1cc2c(=O)[nH]c(N)nc2nc1C | > 100 µM | > 100 | > 100 |  | > 100 µM | > 100 µM | > 100 µM | > 100 | > 100 |  |  |  |  | > 100 |  |  |  |  |  | 
19 | O=C1CCC2(c3ccccc3)Nc3ccc(Cl)cc3N12 (stereo unspecified) |  | > 100 | > 100 | > 100 | > 100 µM | > 100 µM | > 100 µM | > 100 | > 100 |  |  |  |  |  |  |  |  |  |  | 
20 | CC/C(CC(=O)CCC(=O)Nc1ccc(C)c(C)c1)=N\NC(=O)C(N)=O | > 100 µM | > 100 | > 100 | > 100 | > 100 µM | > 100 µM | > 100 µM | > 100 | > 100 |  |  |  |  |  |  |  |  |  |  | 
